Key:
Assay in all cases: combination Emax (second highest fraction inhibited in the dose matrix, 72 h); higher = more inhibition; extreme values may be limits of the assay
[1] = system: ASH-3 (Thyroid Gland Carcinoma)
Procedure, shortened: (§1)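 Cell lines grown in DMEM/F12 or RPMI with 10% FBS were plated in 1536-well plates and held 24 hours at 37°C, 5% CO2 before 72 hours of exposure to two-drug dose matrices, with DMSO typically at 0.2%. CellTiter-Glo 2.0 luminescence gave viability, which was converted to inhibition. Vehicle wells were set to 0 and blank wells to 1. Combination Emax is the second-highest inhibition in the matrix, and Bliss excess is the observed combination effect minus the expected EA + EB − EA·EB, where EA and EB are the single-agent effects.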

BT-20 (Breast Carcinoma) = system: BT-20 (Breast Carcinoma)
Procedure, shortened: as §1

[2] = system: DG-75 (Burkitt's Lymphoma)
Procedure, shortened: as §1

EW-13 (Ewing's Sarcoma) = system: EW-13 (Ewing's Sarcoma)
Procedure, shortened: as §1

EW-18 (Ewing's Sarcoma) = system: EW-18 (Ewing's Sarcoma)
Procedure, shortened: as §1

GOTO (Neuroblastoma) = system: GOTO (Neuroblastoma)
Procedure, shortened: as §1

[3] = system: HC-1 (Other Blood Carcinomas)
Procedure, shortened: as §1

[4] = system: KLE (Endometrial Carcinoma)
Procedure, shortened: as §1

NB7 (Neuroblastoma) = system: NB7 (Neuroblastoma)
Procedure, shortened: as §1

[5] = system: NCI-H2347 (Lung Adenocarcinoma)
Procedure, shortened: as §1

[6] = system: NCI-H322M (Lung Adenocarcinoma)
Procedure, shortened: as §1

[7] = system: NCI-H513 (Other Solid Carcinomas)
Procedure, shortened: as §1

NH-12 (Neuroblastoma) = system: NH-12 (Neuroblastoma)
Procedure, shortened: as §1

[8] = system: OCUB-M (Breast Carcinoma)
Procedure, shortened: as §1

[9] = system: OCUM-1 (Gastric Carcinoma)
Procedure, shortened: as §1

[10] = system: PF-382 (T-Lymphoblastic Leukemia)
Procedure, shortened: as §1

[11] = system: PFSK-1 (Other Solid Carcinomas)
Procedure, shortened: as §1

[12] = system: SCC-3 (B-Cell Non-Hodgkin's Lymphoma)
Procedure, shortened: as §1

[13] = system: TGBC11TKB (Gastric Carcinoma)
Procedure, shortened: as §1

U-87-MG (Glioblastoma) = system: U-87-MG (Glioblastoma)
Procedure, shortened: as §1

| Compound | combination Emax [1] | combination Emax (BT-20 (Breast Carcinoma)) | combination Emax [2] | combination Emax (EW-13 (Ewing's Sarcoma)) | combination Emax (EW-18 (Ewing's Sarcoma)) | combination Emax (GOTO (Neuroblastoma)) | combination Emax [3] | combination Emax [4] | combination Emax (NB7 (Neuroblastoma)) | combination Emax [5] | combination Emax [6] | combination Emax [7] | combination Emax (NH-12 (Neuroblastoma)) | combination Emax [8] | combination Emax [9] | combination Emax [10] | combination Emax [11] | combination Emax [12] | combination Emax [13] | combination Emax (U-87-MG (Glioblastoma)) |
| --- | --- | --- | --- | --- | --- | --- | --- | --- | --- | --- | --- | --- | --- | --- | --- | --- | --- | --- | --- | --- |
| CC1(C)CCC(CN2CCN(c3ccc(C(=O)NS(=O)(=O)c4ccc(NCC5CCOCC5)c([N+](=O)[O-])c4)c(Oc4cnc5[nH]ccc5c4)c3)CC2)=C(c2ccc(Cl)cc2)C1 [Venetoclax] + C[C@@H](Nc1cc(F)cc(F)c1)c1cc(C(=O)N(C)C)cc2c(=O)cc(N3CCOCC3)oc12 [AZD8186] (first compound max 1 µM, 7x7, partner max 3 µM) | 0.332 | 0.0992 | 0.386 | 0.322 | 0.599 | 0.305 | 0.616 | 0.41 | 0.295 | 0.189 | 0.237 | 0.17 | 0.612 | 0.276 | 0.137 | 0.202 | 0.194 | 0.207 | 0.203 | 0.44 |
| Cc1c2c(nn1C)CSCc1cc(n(C)n1)CSc1cc(c3ccccc3c1)OCCCc1c(C(=O)O)n(C)c3c-2c(Cl)ccc13 [AZD5991] + C=CCn1c(=O)c2cnc(Nc3ccc(N4CCN(C)CC4)cc3)nc2n1-c1cccc(C(C)(C)O)n1 [AZD1775] (first compound max 1 µM, partner max 1 µM) | 0.339 | 0.809 | 0.92 | 0.388 | 0.91 | 0.834 | 0.994 | 0.538 | 0.869 | 0.357 | 0.854 | 0.532 | 0.918 | 0.984 | 0.38 | 0.961 | 1 | 0.85 | 0.922 | 0.457 |
| CC1(C)CCC(CN2CCN(c3ccc(C(=O)NS(=O)(=O)c4ccc(NCC5CCOCC5)c([N+](=O)[O-])c4)c(Oc4cnc5[nH]ccc5c4)c3)CC2)=C(c2ccc(Cl)cc2)C1 [Venetoclax] + COc1cc(Nc2ncc3c(n2)-c2ccc(Cl)cc2C(c2c(F)cccc2OC)=NC3)ccc1C(=O)O [Alisertib] (first compound max 1 µM, 7x7, partner max 10 µM) | 0.476 | 0.499 | 0.518 | 0.294 | 0.736 | 0.719 | 0.861 | 0.635 | 0.556 | 0.18 | 0.352 | 0.234 | 0.977 | 0.727 | 0.51 | 0.905 | 0.477 | 0.893 | 0.387 | 0.423 |
| COc1nnc2ccc(N3CCC(c4ccc(OCCN5CCN(C)C(=O)[C@H]5C)cc4)CC3)nn12 [AZD5153] + Cn1cnc2c(F)c(Nc3ccc(Br)cc3Cl)c(C(=O)NOCCO)cc21 [Selumetinib] (first compound max 1 µM, 7x7, partner max 10 µM) | 0.713 | 0.302 | 0.862 | 0.315 | 0.59 | 0.822 | 0.506 | 0.631 | 0.45 | 0.6 | 0.726 | 0.499 | 0.729 | 0.534 | 0.909 | 0.903 | 0.664 | 0.93 | 0.683 | 0.698 |
| CC1(C)CCC(CN2CCN(c3ccc(C(=O)NS(=O)(=O)c4ccc(NCC5CCOCC5)c([N+](=O)[O-])c4)c(Oc4cnc5[nH]ccc5c4)c3)CC2)=C(c2ccc(Cl)cc2)C1 [Venetoclax] + Cn1cnc2c(F)c(Nc3ccc(Br)cc3Cl)c(C(=O)NOCCO)cc21 [Selumetinib] (first compound max 1 µM, 7x7, partner max 3 µM) | 0.294 | 0.231 | 0.257 | 0.213 | 0.26 | 0.236 | 0.521 | 0.276 | 0.137 | 0.344 | 0.541 | 0.228 | 0.777 | 0.286 | 0.918 | 0.18 | 0.171 | 0.205 | 0.313 | 0.223 |
| Cn1cnc2c(F)c(Nc3ccc(Br)cc3Cl)c(C(=O)NOCCO)cc21 [Selumetinib] + CCN(CCO)CCCOc1ccc2c(Nc3cc(CC(=O)Nc4cccc(F)c4)[nH]n3)ncnc2c1 [AZD2811] (first compound max 10 µM, 7x7, partner max 1 µM) | 0.391 | 0.474 | 0.265 | 0.218 | 0.7 | 0.648 | 0.702 | 0.286 | 0.415 | 0.312 | 0.602 | 0.264 | 0.729 | 0.713 | 0.93 | 0.911 | 0.313 | 0.43 | 0.569 | 0.252 |
| COc1nnc2ccc(N3CCC(c4ccc(OCCN5CCN(C)C(=O)[C@H]5C)cc4)CC3)nn12 [AZD5153] + CC1(C)CCC(CN2CCN(c3ccc(C(=O)NS(=O)(=O)c4ccc(NCC5CCOCC5)c([N+](=O)[O-])c4)c(Oc4cnc5[nH]ccc5c4)c3)CC2)=C(c2ccc(Cl)cc2)C1 [Venetoclax] (first compound max 1 µM, 7x7, partner max 1 µM) | 0.718 | 0.138 | 0.887 | 0.481 | 0.615 | 0.813 | 0.557 | 0.609 | 0.37 | 0.331 | 0.515 | 0.358 | 0.737 | 0.39 | 0.567 | 0.871 | 0.595 | 0.887 | 0.324 | 0.546 |
| CC(=O)Nc1cccc(-n2c(=O)n(C3CC3)c(=O)c3c(Nc4ccc(I)cc4F)n(C)c(=O)c(C)c32)c1 [Trametinib] + Cc1nc(-c2cn3c(n2)-c2ccc(-c4cnn(C(C)(C)C(N)=O)c4)cc2OCC3)n(C(C)C)n1 [Taselisib] (first compound max 1 µM, 7x7, partner max 10 µM) | 0.962 | 1 | 0.307 | 0.262 | 0.637 | 0.701 | 0.665 | 0.619 | 0.577 | 0.618 | 0.887 | 0.757 | 0.841 | 1 | 1 | 0.905 | 0.604 | 0.736 | 0.86 | 0.837 |
| CC(=O)c1c(C)c2cnc(Nc3ccc(N4CCNCC4)cn3)nc2n(C2CCCC2)c1=O [Palbociclib] + Cn1cnc2c(F)c(Nc3ccc(Br)cc3Cl)c(C(=O)NOCCO)cc21 [Selumetinib] (first compound max 10 µM, 7x7, partner max 10 µM) | 0.403 | 0.361 | 0.723 | 0.113 | 0.58 | 0.819 | 0.59 | 0.31 | 0.331 | 0.38 | 0.665 | 0.305 | 0.592 | 0.0542 | 0.944 | 0.761 | 0.138 | 0.503 | 0.436 | 0.326 |
| Cc1c2c(nn1C)CSCc1cc(n(C)n1)CSc1cc(c3ccccc3c1)OCCCc1c(C(=O)O)n(C)c3c-2c(Cl)ccc13 [AZD5991] + Cn1cnc2c(F)c(Nc3ccc(Br)cc3Cl)c(C(=O)NOCCO)cc21 [Selumetinib] (first compound max 1 µM, 7x7, partner max 3 µM) | 0.368 | 0.763 | 0.112 | 0.338 | 0.927 | 0.714 | 0.402 | 0.287 | 0.536 | 0.41 | 0.566 | 0.473 | 0.568 | 0.979 | 0.895 | 0.207 | 1 | 0.639 | 0.683 | 0.372 |
| CN(CCO)CC[C@H](CSc1ccccc1)Nc1ccc(S(=O)(=O)NC(=O)c2ccc(N3CCC([C@@H](O)c4ccccc4-c4ccc(Cl)cc4)CC3)cc2)cc1S(=O)(=O)C(F)(F)F [AZD4320] + CN(C)CCCOc1ccc(-c2ccc3ncc4c(c3c2)n(C2CCOCC2)c(=O)n4C)cn1 [AZD0156] (first compound max 1 µM, 7x7, partner max 1 µM) | 0.498 | 0.411 | 0.336 | 0.636 | 0.91 | 0.481 | 0.424 | 0.266 | 0.108 | 0.45 | 0.172 | 0.143 | 0.909 | 0.516 | 0.734 | 0.98 | 0.375 | 0.361 | 0.258 | 0.165 |
| COc1nnc2ccc(N3CCC(c4ccc(OCCN5CCN(C)C(=O)[C@H]5C)cc4)CC3)nn12 [AZD5153] + CN(CC[C@H](CSC1=CC=CC=C1)NC2=C(C=C(C=C2)S(=O)(=O)NC(=O)C3=CC=C(C=C3)N4CCC(CC4)[C@H](C5=CC=CC=C5C6=CC=C(C=C6)Cl)O)S(=O)(=O)C(F)(F)F)CCO [AZD4320] (first compound max 1 µM, 7x7, partner max 1 µM) | 0.958 | 0.293 | 0.881 | 0.818 | 0.929 | 0.858 | 0.695 | 0.792 |  | 0.518 | 0.563 | 0.409 | 0.91 |  |  | 1 | 0.558 | 0.93 |  | 0.625 |
